The target in one test is T1, HIV protease (Human immunodeficiency virus type 1 group M subtype B, UniProt P04585).
T1 construct: and purified protease
The test is described as follows: HIV Protease Assay. The test is classed as biochemical. In a few lines: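 Purified protease cleaved 450 μM octapeptide substrate in 50 mM sodium acetate pH 5.5 with 100 μg/ml BSA for 30 minutes at 37° C; product analyzed by reverse-phase HPLC at UV220 after H3PO4 quench. Inhibitors tested at final 10 μM with 4% DMSO.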

In test [1] the test system is RF strain of HIV (CEM-SS cells). The test is described as follows: Cell Culture Anti-HIV Activity (cell viability, formazan). The test is classed as cell-based. The following applies: CEM-SS cells, RF strain of HIV, multiplicity of infection 0.04, 6 days at 37° C., 450 nm, read-out: HIV (CEM Cells) IC50. The method, then: The antiviral activity of aminediol inhibitors of the present invention was evaluated by a microculture method which determines the increase in cell viability of an infected culture when a drug is added. The assay depends on the metabolic reduction of tetrazolium reagent by viable cells to yield a soluble colored formazan product.
The assay was performed as follows: suspensions of CEM-SS cells (5000/well) were infected with the RF strain of HIV at a multiplicity of infection at 0.04 in a 96-well plate. The compounds of the present invention listed in the following Table 1, serially diluted in half-log fashion, were added to the infected and uninfected control cells. Untreated (infected and uninfected) cells were included as controls. Following incubation for 6 days at 37° C., viable cells in each well were quantitated by the visible light absorbance at 450 nm.
The IC50 was calculated as the concentration of drug that increased the formazan production in virally infected cells to 50% of that produced by uninfected cells in the absence of drug.

[2] abbreviates: pH 5.5, 10 μM inhibitor, 4% DMSO, 450 μM substrate, pH 5.5, 30 minutes at 37° C., RP-HPLC, read-out: HIV Protease % Inhibition at 10 μM.
Setting [3] is: Human immunodeficiency virus 1, CEM-SS, 144 h.
[4] abbreviates: pH 5.5, read-out: HIV Protease % Inhibition at 10 μM.

Read-outs that look alike come from different tables or passages of the source.

13 compounds from US5760036A, “Aminediol protease inhibitors” (E. R. Squibb & Sons, Inc., priority 1995, dated 1998) can be followed below.

Broadly, the inhibition is the share of the control response that was lost under treatment. In general, IC50 refers to the concentration needed to halve the response being measured. Turning to `CC(C)(C)OC(=O)N[C@@H](Cc1ccccc1)[C@H](O)CNC[C@@H](O)[C@H](Cc1ccccc1)NC(=O)[C@@H](NC(=O)OCc1cc2cccnc2o1)C(C)(C)C` [Compound 352, [S-[1R*,2S*(2S*,3R*)]]-[2,2-Dimethyl-1-[[[3-[[3-[[(1,1-dimethylethoxy)carbonyl]amino]-2-hydroxy-4-phenylbutyl]amino]-2-hydroxy-1-(phenylmethyl)-propyl]amino]carbonyl]propyl]carbamic acid, (2-furo[2,3-b]pyridinyl)methyl ester], the inhibition at 10 µM at HIV protease (setting [2]) amounted to 99%. Also, the IC50 in test [1] (setting [3]) is 100 nM.
Take `CC(C)(C)OC(=O)N[C@@H](Cc1ccccc1)[C@H](O)CNC[C@@H](O)[C@H](Cc1ccccc1)NC(=O)[C@](C)(O)C(C)(C)C` [Compound 262, [1S-[1R*,2S*[2S*,3R*(S*)]]]-[3-[[3-[(2-Hydroxy-2,3,3-trimethyl-1-oxobutyl)amino]-2-hydroxy-4-phenylbutyl]amino]-2-hydroxy-1-(phenylmethyl)propyl]carbamic acid, 1.1-dimethylethyl ester]: the inhibition at 10 µM at HIV protease (setting [4]) is 100%. Besides, the IC50 in test [1] (setting [3]) amounted to 30 nM.
For `CC(C)[C@H](NC(=O)OCc1nc2ccccc2o1)C(=O)N[C@@H](Cc1ccccc1)[C@H](O)CNC[C@@H](O)[C@H](Cc1ccccc1)NC(=O)OC(C)(C)C` (relative stereo) [Compound 171, S-[1R*,2S*(2S*,3R*)]-N^2-[[(2-Benzo-xazolyl)methoxy]carbonyl]-N-[3-[[3-[[(1,1-dimethylethoxy)carbonyl]amino]-2-hydroxy-4-phenylbutyl]amino]-2-hydroxy-1-(phenylmethyl)-propyl]-L-valinamide], on HIV protease (setting [2]), the inhibition at 10 µM is 99%. The IC50 in test [1] (setting [3]) was found to be 50 nM.
Taken in the same sequence, the figures for `CC(C)(C)OC(=O)N[C@@H](Cc1ccccc1)[C@H](O)CNC[C@@H](O)[C@H](Cc1ccccc1)NC(=O)[C@@H](NC(=O)OCC1COC(=O)N1)C(C)(C)C` (stereo partly drawn) [Compound 315, [S-[1R*,2S*(2S*,3R*)]]-[2,2-Dimethyl-l-[[[3-[[3-[[(1,1-dimethylethoxy)carbonyl]amino]-2-hydroxy-4-phenylbutyl]amino]-2-hydroxy-1-(phenylmethyl)-propyl]amino]carbonyl]propyl]carbamic acid, (2-oxo-4-oxazolidinyl)methyl ester] were 100% and 1600 nM.
On to `CC(C)(C)OC(=O)N[C@@H](Cc1ccccc1)[C@H](O)CNC[C@@H](O)[C@H](Cc1ccccc1)NC(=O)C1(O)CCCC1(C)C` (single isomer, unassigned; isomer a) [Compound 321, [1S-[1R*,2S*(2S*,3R*)]]-[3-[[3-[[2,2-Dimethyl-1-hydroxycyclopentyl)-carbonyl]amino]-2-hydroxy-4-phenylbutyl]amino]-2-hydroxy-1-(phenylmethyl)propyl]carbamic acid, 1,1-dimethylethyl ester, isomer A], for which, on HIV protease (setting [4]), the inhibition at 10 µM came to 100%. Further, in test [1], the IC50 worked out at 200 nM.
In the case of `CC(C)OC(=O)N[C@@H](Cc1ccccc1)[C@H](O)CNC[C@@H](O)[C@H](Cc1ccccc1)NC(=O)OC(C)C` [Compound 123, [R-(R*,S*)]-[Iminobis[2-hydroxy-1-(phenylmethyl)-3.1-propandiyl]biscarbamic acid, bis(1-methylethyl)ester], on HIV protease (setting [2]), the inhibition at 10 µM is 65%. In test [1] (setting [3]), the IC50 is 1000 nM.
Take `Cc1ccc(N(C)CCOc2ccc(C[C@H](NC(=O)OC(C)(C)C)[C@H](O)CNC[C@@H](O)[C@H](Cc3ccccc3)NC(=O)OC(C)(C)C)cc2)cc1` [Compound 217, [1S-[1R*,2S*(2S*,3R*)]]-[3-[[3-[[(1,1-Dimethylethoxy)carbonyl]amino]-2-hydroxy-4-[4-[2-methyl(4-methylphen-yl)amino]-ethoxyl]phenyl]butyl]amino]-2-hydroxy-1-(phenylmethyl) propyl]carbamic acid, 1,1-dimethylethyl ester]: at HIV protease (setting [2]), the inhibition at 10 µM worked out at 100%. Moreover, in test [1] (setting [3]), the IC50 came to 480 nM.
Take `CC(C)(C)OC(=O)N[C@@H](Cc1ccccc1)[C@H](O)CNC[C@@H](O)[C@H](Cc1ccc(OCCO)cc1)NC(=O)OC(C)(C)C` [Compound 209, [1S-[1R*,2S*(2S*,3R*)]]-[3[[-3-[[(1,1-Dimethylethoxy)carbonyl]amino]-2-hydroxy-4-[4-(2-hydroxyethoxy)phenyl]butyl]amino]-2-hydroxy-1-(phenylmethyl)propyl]-carbamic acid, 1,1-dimethylethyl ester]: on HIV protease (setting [2]), the inhibition at 10 µM came out at 99%. In addition, in test [1] (setting [3]), the IC50 is 30 nM.
For `CC(C)(C)OC(=O)N[C@@H](Cc1ccccc1)[C@H](O)CNC[C@@H](O)[C@H](Cc1ccccc1O)NC(=O)OC(C)(C)C` [Compound 350, [1S-[1R*,2S*(2S*,3R*)]]-[3-[[3-[[(1,1-Dimethylethoxy)carbonyl]amino]-2-hydroxy-4-(2-hydroxyphenyl)butyl]amino]-2-hydroxy-1-(phenylmethyl)propyl]carbamic acid, 1,1-dimethylethyl ester] the same measures were 98% and 500 nM.
Consider `CC(C)(C)OC(=O)N[C@@H](Cc1ccccc1)[C@H](O)CNC[C@@H](O)[C@H](Cc1ccccc1)NC(=O)C(C)(O)C(C)(C)CO` (single isomer, unassigned; isomer a) [Compound 356, [1S-[1R*,2S*(2S*,3R*)]]-[3-[3-[2,4-Dihydroxy-2,3,3-trimethyl-1-oxobutyl)amino]-2-hydroxy-4-phenylbutyl]amino]-2-hydroxy-1-(phenylmethyl)propyl]carbamic acid, 1,1-dimethylethyl ester, isomer A], for which the inhibition at 10 µM at HIV protease (setting [4]) was found to be 99%. The IC50 in test [1] (setting [3]) is 120 nM.
Take `CC(C)(C)OC(=O)N[C@@H](Cc1ccccc1)[C@H](O)CNC[C@@H](O)[C@H](Cc1ccccc1)NC(=O)OCCO` [Compound 241, [R-(R*,S*)]-[Iminobis[2-hydroxy-1-(phenylmethyl)-3,1-propanediyl)]biscarbamic acid, 1,1-dimethylethyl-2-hydroxyethyl ester]: the inhibition at 10 µM at HIV protease (setting [2]) worked out at 95%. For the same compound, the IC50 in test [1] (setting [3]) came out at 280 nM.
Take `CC(C)(CO)OC(=O)N[C@@H](Cc1ccccc1)[C@H](O)CNC[C@@H](O)[C@H](Cc1ccccc1)NC(=O)[C@](C)(O)C(C)(C)C` [Compound 333, [1S-[1R*,2S*[2S*3R*(S*)]]]-[3-[[3-[(2-Hydroxy-2,3,3-trimethyl-1-oxobutyl)amino]-2-hydroxy-4-phenylbutyl]amino-2-hydroxy-1-(phenylmethyl)propyl]carbamic acid, 2-hydroxy-1,1-dimethylethyl ester]: the inhibition at 10 µM on HIV protease (setting [2]) amounted to 100%. Further, the IC50 in test [1] (setting [3]) amounted to 150 nM.
Taken in the same sequence, the figures for `CC(C)[C@H](NC(=O)OCc1nc(-c2ccccc2)c[nH]1)C(=O)N[C@@H](Cc1ccccc1)[C@H](O)CNC[C@@H](O)[C@H](Cc1ccccc1)NC(=O)OC(C)(C)C` (relative stereo) [Compound 265, [1R*,2S*(2S*,3R*)]-N-[3-[[3-[[(1,1-Dimethylethoxy)carbonyl]amino]-2-hydroxy-4-phenylbutyl]amino]-2-hydroxy-1-(phenylmethyl)propyl]-N^2-[[(4-phenyl-1H-imidazol-2-yl)methoxylcarbonyl]-L-valinamide] were 100% and 2600 nM.
